Patent US5416191A, “Bradykinin antagonists” (Cortech, Inc., priority 1993, dated 1995)
Peptide text beside a SMILES is read from it.

Tests used:
[1] = biological target: T1, bradykinin receptor of the B2 class (rat uterus) (Rattus norvegicus, UniProt P25023); test: Rat uterus (RU) in vitro, antagonism of bradykinin; conditions: Table C; rat uterus
T1 construct: concentration effect curves to bradykinin (BK) on rat uterus in vitro; from tissue; host or cells: rat uterus
T1 sequence (P25023 1-396): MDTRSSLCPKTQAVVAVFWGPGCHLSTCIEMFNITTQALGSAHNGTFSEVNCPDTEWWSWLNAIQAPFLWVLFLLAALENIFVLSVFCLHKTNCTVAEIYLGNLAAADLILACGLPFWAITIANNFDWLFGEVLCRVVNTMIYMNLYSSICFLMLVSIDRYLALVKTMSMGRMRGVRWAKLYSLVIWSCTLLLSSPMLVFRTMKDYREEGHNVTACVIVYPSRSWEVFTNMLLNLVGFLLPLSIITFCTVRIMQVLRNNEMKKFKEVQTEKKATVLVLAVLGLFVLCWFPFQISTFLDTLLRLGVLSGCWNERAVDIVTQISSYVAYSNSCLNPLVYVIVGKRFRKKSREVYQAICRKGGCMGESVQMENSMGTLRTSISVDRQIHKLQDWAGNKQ
In short: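 Isolated rat uterus; bradykinin antagonism expressed as pA2, the negative log molar antagonist concentration that halves agonist potency. After the highest antagonist concentration, tissues were washed extensively and percent recovery was recorded.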

[2] = biological target: T2, bradykinin receptor of the B2 class (guinea-pig ileum) (Cavia porcellus, UniProt O70526); conditions: Table B; Cys position scan, monomers and BMH dimers
T2 sequence (O70526 1-372): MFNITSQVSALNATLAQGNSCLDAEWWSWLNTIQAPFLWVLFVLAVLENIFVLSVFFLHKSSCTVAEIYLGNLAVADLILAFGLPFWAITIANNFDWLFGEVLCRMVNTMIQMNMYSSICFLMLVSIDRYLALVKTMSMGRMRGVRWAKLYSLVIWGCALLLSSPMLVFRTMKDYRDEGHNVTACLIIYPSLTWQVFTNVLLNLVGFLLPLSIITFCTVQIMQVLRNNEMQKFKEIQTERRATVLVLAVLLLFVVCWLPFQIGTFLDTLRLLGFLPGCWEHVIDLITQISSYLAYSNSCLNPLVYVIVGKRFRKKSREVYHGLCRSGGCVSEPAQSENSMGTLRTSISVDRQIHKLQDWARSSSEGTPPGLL

Compound	pA2 DIMER [1]	pA2 GUINEA PIG ILEUM [2]
CC(C)C[C@H](NC(=O)[C@H](CSC1CC(=O)N(CCCCCCN2C(=O)CC(SC[C@H](NC(=O)[C@H](CO)NC(=O)[C@H](Cc3ccccc3)NC(=O)CNC(=O)[C@@H]3C[C@@H](O)CN3C(=O)[C@@H]3CCCN3C(=O)[C@H](CCCNC(=N)N)NC(=O)[C@H](N)CCCNC(=N)N)C(=O)N[C@@H](CC(C)C)C(=O)N[C@@H](CCCNC(=N)N)C(=O)O)C2=O)C1=O)NC(=O)[C@H](CO)NC(=O)[C@H](Cc1ccccc1)NC(=O)CNC(=O)[C@@H]1C[C@@H](O)CN1C(=O)[C@@H]1CCCN1C(=O)[C@H](CCCNC(=N)N)NC(=O)[C@H](N)CCCNC(=N)N)C(=O)N[C@@H](CCCNC(=N)N)C(=O)O (stereo partly drawn) [CP-0157] (HELM PEPTIDE1{[dR].R.P.[Hyp].G.F.S.C.L.R}|PEPTIDE2{[dR].R.P.[Hyp].G.F.S.C.L.R}|CHEM1{[O=C1CC([*:1])C(=O)N1CCCCCCN1C(=O)CC([*:2])C1=O]}$PEPTIDE1,CHEM1,8:R3-1:R1|PEPTIDE2,CHEM1,8:R3-1:R2$$$V2.0)	Inactive	Inactive
CC(C)C[C@H](NC(=O)[C@@H](CSC1CC(=O)N(CCCCCCN2C(=O)CC(SC[C@@H](NC(=O)[C@H](CO)NC(=O)[C@H](Cc3ccccc3)NC(=O)CNC(=O)[C@@H]3C[C@@H](O)CN3C(=O)[C@@H]3CCCN3C(=O)[C@H](CCCNC(=N)N)NC(=O)[C@H](N)CCCNC(=N)N)C(=O)N[C@@H](CC(C)C)C(=O)N[C@@H](CCCNC(=N)N)C(=O)O)C2=O)C1=O)NC(=O)[C@H](CO)NC(=O)[C@H](Cc1ccccc1)NC(=O)CNC(=O)[C@@H]1C[C@@H](O)CN1C(=O)[C@@H]1CCCN1C(=O)[C@H](CCCNC(=N)N)NC(=O)[C@H](N)CCCNC(=N)N)C(=O)N[C@@H](CCCNC(=N)N)C(=O)O (stereo partly drawn) [CP-0158] (HELM PEPTIDE1{[dR].R.P.[Hyp].G.F.S.[dC].L.R}|PEPTIDE2{[dR].R.P.[Hyp].G.F.S.[dC].L.R}|CHEM1{[O=C1CC([*:1])C(=O)N1CCCCCCN1C(=O)CC([*:2])C1=O]}$PEPTIDE1,CHEM1,8:R3-1:R1|PEPTIDE2,CHEM1,8:R3-1:R2$$$V2.0)	Inactive	Inactive
N=C(N)NCCC[C@@H](N)C(=O)N[C@@H](CCCNC(=N)N)C(=O)N1CCC[C@H]1C(=O)N1C[C@H](O)C[C@H]1C(=O)NCC(=O)N[C@@H](Cc1ccccc1)C(=O)N[C@@H](CO)C(=O)N[C@H](Cc1ccccc1)C(=O)N[C@@H](CSC1CC(=O)N(CCCCCCN2C(=O)CC(SC[C@H](NC(=O)[C@@H](Cc3ccccc3)NC(=O)[C@H](CO)NC(=O)[C@H](Cc3ccccc3)NC(=O)CNC(=O)[C@@H]3C[C@@H](O)CN3C(=O)[C@@H]3CCCN3C(=O)[C@H](CCCNC(=N)N)NC(=O)[C@H](N)CCCNC(=N)N)C(=O)N[C@@H](CCCNC(=N)N)C(=O)O)C2=O)C1=O)C(=O)N[C@@H](CCCNC(=N)N)C(=O)O (stereo partly drawn) [CP-0159] (HELM PEPTIDE1{[dR].R.P.[Hyp].G.F.S.[dF].C.R}|PEPTIDE2{[dR].R.P.[Hyp].G.F.S.[dF].C.R}|CHEM1{[O=C1CC([*:1])C(=O)N1CCCCCCN1C(=O)CC([*:2])C1=O]}$PEPTIDE1,CHEM1,9:R3-1:R1|PEPTIDE2,CHEM1,9:R3-1:R2$$$V2.0)	Inactive	Inactive
